According to patent US12383479B2 (LG HOUSEHOLD & HEALTH CARE LTD., priority 2021, dated 2025):
Converted amounts (≈) assume the structure as drawn.

What was measured:
[1] = Experimental Example 1: solubility of palmitoylethanolamide in each polyol solvent; assay type: physicochemical; details: 25° C. for 24 hours
From the text: Polyols representatively used as solvents of cosmetics were chosen, which were propanediol, glycerin, […], 2,3-butanediol, pentylene glycol, dipropylene glycol, propylene glycol, butylene glycol, ethoxydiglycerol, and 1,2-hexanediol.

[2] = 25° C.; cited from earlier work
[3] = Experimental Example 2: solubility of palmitoylethanolamide with combined use of selected solvents and 2,3-butanediol; assay type: physicochemical; details: 1 wt % palmitoylethanolamide, 25° C. for 4 weeks, regardless of weight ratio
[4] = 0.5 wt % and 1 wt % palmitoylethanolamide

- solubility in 1,2-hexanediol [1, 4]: good solubility
- solubility in pentylene glycol [1, 4]: good solubility
- solubility in the remaining polyols ([1]; propanediol, glycerin, ethanol, 2,3-butanediol, dipropylene glycol, propylene glycol, butylene glycol, ethoxydiglycerol, 0.5 and 1 wt %): precipitation
- solubility in 1,2-hexanediol combined with 2,3-butanediol [3]: dissolved
- solubility in pentylene glycol combined with 2,3-butanediol [3]: dissolved
Structure (SMILES): CCCCCCCCCCCCCCCC(=O)NCCO [palmitoylethanolamide, N-(2-hydroxyethyl)hexadecanamide]
- water solubility [2]: 0.4431 µg/mL (≈ 1.48 µM)
